Earlier results as cited in US20130177609A1, “Compositions and Methods for Increasing Bioavailability of Topical Ophthalmic Drugs” (priority 2008, published 2013).

Settings: cited from earlier work

CN1C(C(=O)Nc2ccccn2)=C(O)c2ccccc2S1(=O)=O [piroxicam]
Approximate Solubility in Water: 30 µg/mL

CC(C)(C)NC[C@H](O)COc1cccc2c1CCCC2=O [levobutonol]
Approximate Solubility in Water: 250 µg/mL

CC(C)NCC(O)COc1ccc(CCOCC2CC2)cc1 (stereo not drawn) [betaxolol]
Approximate Solubility in Water: 450 µg/mL

CCc1cccc2c3c([nH]c12)C(CC)(CC(=O)O)OCC3 (stereo not drawn) [etodolac]
Approximate Solubility in Water: 16 µg/mL

CC(C)OC(=O)CCC/C=C\C[C@@H]1[C@@H](CC[C@@H](O)CCc2ccccc2)[C@H](O)C[C@@H]1O [latanoprost]
Approximate Solubility in Water: 52 µg/mL

Nc1c(CC(=O)O)cccc1C(=O)c1ccc(Br)cc1 [bromfenac]
Approximate Solubility in Water: 13 µg/mL

NC(=O)Cc1cccc(C(=O)c2ccccc2)c1N [nepafenac]
Approximate Solubility in Water: 20 to 50 µg/mL

Brc1c(NC2=NCCN2)ccc2nccnc12 [brimonidine]
Approximate Solubility in Water: 1500 µg/mL

C[C@@H]1C[C@H]2[C@@H]3CCC4=CC(=O)C=C[C@]4(C)[C@@]3(F)[C@@H](O)C[C@]2(C)[C@@]1(O)C(=O)CO [dexamethasone]
Approximate Solubility in Water: 9 µg/mL
